# Test results as given in patent EP1308501A1, “Fermented beverages comprising yeast transformed by the ATF2 gene” (Pernod-Ricard, priority 2001, dated 2003).
# Read-outs that look alike come from different tables or passages of the source.
# How the values were obtained:
# production d'esters = settings: six mois après la mise en bouteille; cited from earlier work
# Atf2p = biological target: T1, Atf2p (Saccharomyces cerevisiae, UniProt P53296); settings: cited from earlier work
# T1 sequence (P53296 1-535): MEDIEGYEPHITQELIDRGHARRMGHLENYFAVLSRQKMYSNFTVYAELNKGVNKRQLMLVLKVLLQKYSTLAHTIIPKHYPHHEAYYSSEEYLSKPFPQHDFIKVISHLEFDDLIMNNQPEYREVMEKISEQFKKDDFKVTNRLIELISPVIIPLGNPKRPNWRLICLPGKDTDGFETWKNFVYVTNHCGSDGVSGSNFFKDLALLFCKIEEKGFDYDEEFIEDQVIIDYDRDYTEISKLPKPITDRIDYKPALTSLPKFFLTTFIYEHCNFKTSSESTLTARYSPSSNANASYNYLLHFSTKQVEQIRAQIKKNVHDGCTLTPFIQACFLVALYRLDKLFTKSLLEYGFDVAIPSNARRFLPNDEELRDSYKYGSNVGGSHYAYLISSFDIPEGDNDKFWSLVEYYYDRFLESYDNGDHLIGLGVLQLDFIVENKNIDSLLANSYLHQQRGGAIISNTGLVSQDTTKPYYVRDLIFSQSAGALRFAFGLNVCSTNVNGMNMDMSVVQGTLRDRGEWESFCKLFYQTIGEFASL
# [1] = test system: alcool acétyle transférase; settings: partially purified enzyme, cited from earlier work
# YRC1001/pRC124 = assay: Bioconversion of alcohols added to malt medium by a strain overexpressing ATF2; format: cell-based, Saccharomyces cerevisiae
# Description: Transformation dans la souche […], sous contrôle du promoteur proTEF1, le gène ATF2 (pRC124). Les précultures sont réalisées dans du milieu liquide SC20 (Sherman, 1991) dépourvu d'uracile et selon la même procédure que dans l'exemple 3. Les cultures sont ensemencées comme décrit précédemment dans du milieu malt, cette fois non glucosé. Ce dernier est supplémenté en leucine, lysine et histidine. A ce milieu malt, on ajoute juste avant ensemencement des alcools à raison de 100 μg/ml. Après fermentation pendant 98 heures, on analyse -comme décrit précédemment- les alcools et leurs produits dérivés (esters […] correspondant à l'alcool et son ester éthylé). La capacité de bioconversion est ensuite exprimée par le rapport « ester acétylé de l'alcool ajouté »/« somme des alcools et produits dérivés ». Cette valeur donne une indication […] au milieu extérieur par la souche de levure transformée. Les résultats sont […] Tableau 4.
# [2] = alcohol added at 100 µg/ml, malt non glucosé, 98 heures, ratio ester acétylé de l'alcool ajouté / somme des alcools et produits dérivés
compound,measurement,setting,value
CC(=O)OCCC(C)C [acétate d'isoamyle],réduction des esters acétylés,production d'esters,~2 fois
CC(=O)[C@H]1CC[C@H]2[C@@H]3CC=C4C[C@@H](O)CC[C@]4(C)[C@H]3CC[C@]12C [pregnénolone],Km,Atf2p,0.5 µM
CC(C)CCO [isoamylalcool],Km,[1]; acceptor,25000 µM
same,Bioconversion par YRC1001/pRC124,YRC1001/pRC124; [2],"0,045"
CC(=O)OCCc1ccccc1 [acétatede 2-phényléthyle],réduction des esters acétylés,production d'esters,~2 fois
OCc1ccccc1 [benzylalcool],Bioconversion par YRC1001/pRC124,YRC1001/pRC124; [2],"0,163"
CC(=O)SCCNC(=O)CCNC(=O)[C@H](O)C(C)(C)COP(=O)(O)OP(=O)(O)OC[C@H]1O[C@@H](n2cnc3c(N)ncnc32)[C@H](O)[C@@H]1OP(=O)(O)O [acétyle-CoA],Km,[1]; co-factor,25 to 40 µM
same,Km,Atf2p,1 µM
CCCCO [n-butanol],Bioconversion par YRC1001/pRC124,YRC1001/pRC124,"0,021"
